Experimental data taken from PubChem BioAssay AID1259407 (Chemical Carcinogenesis Research Information System (CCRIS), 2018).
The source made the active and inactive calls. The rule behind the calls is not given here.

System: CCRIS mutagenicity, Ames/micronucleus/aberration tests
Assay: CCRIS mutagenicity studies
[1] = Test System: AMES SALMONELLA TYPHIMURIUM, Strain/Indicator: TA98, Metabolic Activation: NONE, Method: PREINCUBATION
[2] = Test System: AMES SALMONELLA TYPHIMURIUM, Strain/Indicator: TA100, Metabolic Activation: NONE, Method: PREINCUBATION

[B-]
mutagenic call [1]: inactive; negative
mutagenic call (Test System: AMES SALMONELLA TYPHIMURIUM, Strain/Indicator: TA98, Metabolic Activation: RAT LIVER S-9, PHENOBARBITAL AND BETA-NAPHTHOFLAVONE, Method: PREINCUBATION): inactive; negative
mutagenic call [2]: inactive; negative
mutagenic call (Test System: AMES SALMONELLA TYPHIMURIUM, Strain/Indicator: TA100, Metabolic Activation: RAT LIVER S-9, PHENOBARBITAL AND BETA-NAPHTHOFLAVONE, Method: PREINCUBATION): inactive; negative
mutagenic call (Test System: AMES SALMONELLA TYPHIMURIUM, Strain/Indicator: TA1535, Metabolic Activation: NONE, Method: PREINCUBATION): inactive; negative
mutagenic call (Test System: AMES SALMONELLA TYPHIMURIUM, Strain/Indicator: TA1535, Metabolic Activation: RAT LIVER S-9, PHENOBARBITAL AND BETA-NAPHTHOFLAVONE, Method: PREINCUBATION): inactive; negative
mutagenic call (Test System: AMES SALMONELLA TYPHIMURIUM, Strain/Indicator: TA1537, Metabolic Activation: NONE, Method: PREINCUBATION): inactive; negative
mutagenic call (Test System: AMES SALMONELLA TYPHIMURIUM, Strain/Indicator: TA1537, Metabolic Activation: RAT LIVER S-9, PHENOBARBITAL AND BETA-NAPHTHOFLAVONE, Method: PREINCUBATION): inactive; negative
mutagenic call (Test System: AMES SALMONELLA TYPHIMURIUM, Strain/Indicator: TA1538, Metabolic Activation: NONE, Method: PREINCUBATION): inactive; negative
mutagenic call (Test System: AMES SALMONELLA TYPHIMURIUM, Strain/Indicator: TA1538, Metabolic Activation: RAT LIVER S-9, PHENOBARBITAL AND BETA-NAPHTHOFLAVONE, Method: PREINCUBATION): inactive; negative
mutagenic call (Test System: E.COLI, Strain/Indicator: WP2UVRA, Metabolic Activation: NONE, Method: PREINCUBATION): inactive; negative
mutagenic call (Test System: E.COLI, Strain/Indicator: WP2UVRA, Metabolic Activation: RAT LIVER S-9, PHENOBARBITAL AND BETA-NAPHTHOFLAVONE, Method: PREINCUBATION): inactive; negative

O=C1NC(=O)C(CCl)=C1Cl
mutagenic call (Test System: AMES SALMONELLA TYPHIMURIUM, Strain/Indicator: TA100, Metabolic Activation: NONE, Method: STANDARD PLATE): active; positive

O=[N+]([O-])c1ccc2c(c1)Cc1cccc([N+](=O)[O-])c1-2
mutagenic call (Test System: AMES SALMONELLA TYPHIMURIUM, Strain/Indicator: TA98, Metabolic Activation: HAMSTER, LIVER, S-9, AROCLOR 1254 (30%), Method: PREINCUBATION): active; positive
mutagenic call [1]: active; positive
mutagenic call (Test System: AMES SALMONELLA TYPHIMURIUM, Strain/Indicator: TA98, Metabolic Activation: RAT, LIVER, S-9, AROCLOR 1254 (30%), Method: PREINCUBATION): active; positive
mutagenic call (Test System: AMES SALMONELLA TYPHIMURIUM, Strain/Indicator: TA100, Metabolic Activation: HAMSTER, LIVER, S-9, AROCLOR 1254 (30%), Method: PREINCUBATION): active; positive
mutagenic call [2]: active; positive
mutagenic call (Test System: AMES SALMONELLA TYPHIMURIUM, Strain/Indicator: TA100, Metabolic Activation: RAT, LIVER, S-9, AROCLOR 1254 (30%), Method: PREINCUBATION): active; positive
